From patent US20240180898A1, “USE OF AMINOTHIAZOLE DERIVATIVE IN TREATMENT OF IMMUNE INFLAMMATION” (INNAMUNE PHARMACEUTICAL CO. LTD., priority 2021, published 2024)

test system: macrophages derived from mouse bone marrow; experiment: LPS-induced secretion of inflammatory factors from macrophages, ELISA of supernatant; assay type: cell-based; conditions: 30 umol/L 2 hours before LPS 500 ng/ml for 24 hours; FIG. 2
Method: macrophage grouping (in vitro):
Cultivate macrophages derived from mouse bone marrow in vitro.
The experiment was divided into 8 groups, namely: • Control group (untreated mouse bone marrow-derived macrophages), • LPS group (500 ng/ml LPS stimulated macrophages for 24 hours), • LPS+TJ-2 group (2 hours before LPS stimulation, administer 30 umol/L TJ-2 drug stimulation), • LPS+TJ-5 group (2 hours before LPS stimulation, administer 30 umol/L TJ-5 drug stimulation), • LPS+TJ-8 group (2 hours before LPS stimulation, administer 30 umol/L TJ-8 drug stimulation), • LPS+TJ-9 group (2 hours before LPS stimulation, administer 30 umol/L TJ-9 drug stimulation), • LPS+TJ-11 group (2 hours before LPS stimulation, administer 30 umol/L TJ-11 drug stimulation), • and LPS+TJ-12 group (2 hours before LPS stimulation, administer 30 umol/L TJ-12 drug stimulation).
After 24 hours of LPS stimulation, the cell culture supernatant was removed and ELISA was performed to detect the concentration of various inflammatory factors in the supernatant.

Structure (SMILES)	inhibitory effect on inflammatory factors compared among the compounds	secretion of various inflammatory factors in macrophages (IL-1β, Il-6, TNF-α, IL-18, IL-17)
Cc1ccc(N2CCN(CC(=O)Nc3nc(-c4ccccc4)cs3)CC2)cc1 [INNA1602, 2-(4-(4-methylphenyl)piperazine-1-yl) -N-(4-phenylthiazole-2-yl) acetamide]	have the same inhibitory effect on inflammatory factors	can inhibit the secretion of various inflammatory factors in macrophages
O=C(CN1CCN(Cc2ccccc2)CC1)Nc1nc(-c2ccccc2)cs1 [INNA1608, 2-(4-benzylpiperazine-1-yl)-N-(4-phenylthiazole-2-yl) acetamide]	have the same inhibitory effect on inflammatory factors	can inhibit the secretion of various inflammatory factors in macrophages
COc1cccc(-c2csc(NC(=O)CCN3CCN(Cc4ccccc4)CC3)n2)c1 [INNA1609, 3-(4-benzylpiperazine-1-yl)-N-(4-(3-methoxyphenyl)thiazole-2-yl) propionamide]	have the same inhibitory effect on inflammatory factors	can inhibit the secretion of various inflammatory factors in macrophages
Cc1cccc(-c2csc(NC(=O)CCN3CCN(c4cccc(C)c4)CC3)n2)c1 [INNA1611]	have the same inhibitory effect on inflammatory factors	can inhibit the secretion of various inflammatory factors in macrophages
Cc1cccc(-c2csc(NC(=O)CN3CCN(Cc4ccccc4)CC3)n2)c1 [INNA1612, 2-(4-benzyl-base)piperazine-1-N-(4-(3-methylphenyl)thiazole-2-base) acetamide]	have the same inhibitory effect on inflammatory factors	can inhibit the secretion of various inflammatory factors in macrophages
